These results are taken from ChEMBL document CHEMBL1649118, “Tissue accumulation of cephalothin in burns: a comparative study by microdialysis of subcutaneous interstitial fluid cephalothin concentrations in burn patients and healthy volunteers” (Antimicrob Agents Chemother, 2009).

Series [1] is described as follows: Time during which concentration exceeded the 5 X MIC for Staphylococcus aureus infected burn patient at nonburnt tissue site at 1g, iv administered as 5 mins infusion. The series is classed as functional.
A short description of series [2]: Drug level in subcutaneous interstitial fluid of healthy human at 1 g, iv administered as 5 mins infusion measured after 240 min. The class given is ADME, organism-based. To be noted: read-out: Drug uptake.
Series [3] in a line: T>MIC in healthy human at 1g, iv administered as 5 mins infusion. The series is classed as functional.
The nature of series [4]: Time during which concentration exceeded the 5 X MIC for Staphylococcus aureus infected burn patient at burnt tissue site at 1g, iv administered as 5 mins infusion. The class given is functional.
A short description of series [5]: Drug level in subcutaneous interstitial fluid at burnt site of patient at 1 g, iv administered as 5 mins infusion measured after 240 min. The series is classed as ADME, organism-based. To be noted: human, read-out: Drug uptake.
Series [6] is described as follows: Drug level in subcutaneous interstitial fluid at nonburnt site of patient at 1 g, iv administered as 5 mins infusion measured after 240 min. The class given is ADME, organism-based. To be noted: human, read-out: Drug uptake.
A short description of series [7]: Fraction unbound in burn patient interstitial fluid at nonburn site at 1g, iv administered as 5 mins infusion by microdialysis. The class given is ADME, organism-based. To be noted: human, in vivo.
Series [8] is described as follows: Time during which concentration exceeded the 5 X MIC for Staphylococcus aureus in healthy human at 1g, iv administered as 5 mins infusion. The class given is functional.
The nature of series [9]: T>MIC in Staphylococcus aureus infected burn patient at burnt tissue site at 1g, iv administered as 5 mins infusion. The class given is functional.
Series [10] relates to Staphylococcus aureus. Nature of the series: Antimicrobial activity against Staphylococcus aureus. The class given is functional.
The nature of series [11]: Plasma protein binding in burn patient at 1g, iv administered as 5 mins infusion. To be noted: human, read-out: PPB (converted). The series is classed as ADME, organism-based.
Series [12] in a line: Fraction unbound in burn patient interstitial fluid at burn site at 1g, iv administered as 5 mins infusion by microdialysis. The series is classed as ADME, organism-based. To be noted: human, in vivo.
A short description of series [13]: Fraction unbound in healthy human interstitial fluid at 1g, iv administered as 5 mins infusion by microdialysis. The conditions noted are these: in vivo. The class given is ADME, organism-based.
The nature of series [14]: Plasma protein binding in healthy human at 1g, iv administered as 5 mins infusion. The class given is ADME, organism-based. To be noted: read-out: PPB (converted).
Series [15] can be described thus: T>MIC in Staphylococcus aureus infected burn patient at nonburnt tissue site at 1g, iv administered as 5 mins infusion. The class given is functional.
Series [16] relates to Plasma. Briefly: Fraction unbound in healthy human plasma at 1g, iv administered as 5 mins infusion by microdialysis. The conditions noted are these: in vivo. The series is classed as ADME, organism-based.
The test system of series [17] is Plasma. Nature of the series: Fraction unbound in burn patient at 1g, iv administered as 5 mins infusion by microdialysis. The series is classed as ADME, organism-based. To be noted: human, in vivo.

≈ marks a conversion by molar mass, not a printed value.

By MIC is commonly meant the least concentration at which growth counts as inhibited. The low end stands for inhibition by little substance, the high end for a need for much substance. `CC(=O)OCC1=C(C(=O)O)N2C(=O)[C@@H](NC(=O)Cc3cccs3)[C@H]2SC1` [CEPHALOTHIN]: the T was 219 min in series [1], 191 min in series [4] and 96 min in series [8]. Also, the concentration at 4 h in series [2] stood at 540 ng/mL; in series [5] it was 2840 ng/mL; in series [6], 3060 ng/mL. The figures for the “T>MIC” value in [3], in series [9] and in series [15] were 160 min, 285 min and 336 min, respectively. Further, the Cp turned out to be 8900 ng/mL in [7]; 14500 ng/mL in [12]; 8600 ng/mL in [13]; 17600 ng/mL in series [16]; 38700 ng/mL in series [17]. The same compound returned an MIC in series [10] of 0.2 µg/mL (≈ 0.504 µM). The fraction unbound at 5 min was 0.42 in [11] and 0.292 in series [14].
